One data set is described as follows: in vitro. As to conditions: male, CD-1, mouse; for Concentration (μM) of analyte PEA, 0 min / Concentration (μM) of analyte PEA, 10 min / Concentration (μM) of analyte PEA, 20 min / Concentration (μM) of analyte PEA, 30 min / Concentration (μM) of analyte PEA, 60 min / % Remaining of Initial (n = 1), 0 min / % Remaining of Initial (n = 1), 10 min / % Remaining of Initial (n = 1), 20 min / % Remaining of Initial (n = 1), 30 min / % Remaining of Initial (n = 1), 60 min / Measured concentration of PEA (analyte) / % Remaining of Initial: 1 μM. The procedure:
(§1) Reaction mixture, minus cofactors, was prepared as described below. Test article was added into the reaction mixture at a final concentration of 1 μM. […] An aliquot of the reaction mixture (without cofactor cocktail) was equilibrated in a shaking water bath at 37° C. for 3 minutes. The reaction was initiated by the addition of cofactor cocktail, and the mixture was incubated in a shaking water bath at 37° C. Aliquots (100 μL) were withdrawn at 0, 10, 20, 30, and 60 minutes. Test article samples were immediately combined with 300 μL of ice-cold acetonitrile containing 1% formic acid. Control samples were immediately combined with 400 μL of ice-cold 50/50 acetonitrile (ACN)/dH2O containing 0.1% formic acid and internal standard to terminate the reaction. Samples were then mixed and centrifuged to precipitate proteins. Calibration standards were prepared in matched matrix. Samples and standards were assayed by LC-MS/MS using electrospray ionization for both the dosed prodrug and the expected drug (PEA). Analytical conditions are outlined in Appendix 8-1. Test article concentration at each time point was compared to test article concentration at time 0 to determine the percent remaining at each time point. Halflives were calculated using GraphPad software, fitting to a single-phase exponential decay equation.
as §1, with “for 5” for “for 3”, “minutes. Reaction” for “minutes. The reaction”, “and” for “and the”, “both” for “both the”, “Appendix 10-1.” for “Appendix 8-1.”
Reaction mixture, minus cofactors, was prepared as described below. Test article was added into the reaction mixture at a final concentration of 1 μM. […] An aliquot of the reaction mixture (without cofactor cocktail) was equilibrated in a shaking water bath at 37° C. for 3 minutes. Reaction was initiated by the addition of cofactor cocktail, and the mixture was incubated in a shaking water bath at 37° C. Aliquots (100 μL) were withdrawn at 0, 10, 20, 30, and 60 minutes. Test article samples were immediately combined with 300 μL of ice-cold acetonitrile containing 1% formic acid. Control samples were immediately combined with 400 μL of ice-cold 50/50 acetonitrile (ACN)/dH2O containing 0.1% formic acid and internal standard to terminate the reaction. Samples were then mixed and centrifuged to precipitate proteins. Calibration standards were prepared in matched matrix. Samples and standards were assayed by LC-MS/MS using electrospray ionization for both dosed prodrug and expected drug (PEA). Analytical conditions are outlined in Appendix 13-1. Test article concentration at each time point was compared to test article concentration at time 0 to determine the percent remaining at each time point. Halflives were calculated using GraphPad software, fitting to a single-phase exponential decay equation.

A short description of data set [1]: Plasma stability (37° C., pH 7.4), mouse. It counts as in vitro ADME, CD-1 mouse. To be noted: for half-life at 1 μM: male, CD-1, mouse, plasma, pH 7.4, mouse plasma, read-out: Half-life; for % Remaining of Initial (n = 1), 0 min / % Remaining of Initial (n = 1), 15 min / % Remaining of Initial (n = 1), 30 min / % Remaining of Initial (n = 1), 60 min / % Remaining of Initial (n = 1), 120 min / % Remaining of Initial: mouse plasma; for % Remaining of Initial (n = 1), 0 min: pH 7.4, 0 min; for % Remaining of Initial (n = 1), 15 min: pH 7.4, 15 min; for % Remaining of Initial (n = 1), 30 min: pH 7.4, 30 min; for % Remaining of Initial (n = 1), 60 min: pH 7.4, 60 min; for % Remaining of Initial (n = 1), 120 min: pH 7.4, 120 min; for % Remaining of Initial: 1 μM, n = 1. The procedure: (§2) Studies were carried out in mixed-gender human plasma (Lot #GLP530-5), male Sprague-Dawley rat (Lot #RAT297944, RAT313140), male CD-1 mouse (Lot #MSE237700), and male Beagle dog (Lot #BGL87670, BGL82614), collected on sodium heparin. Plasma was adjusted to pH 7.4 prior to initiating the experiments. DMSO stocks were first prepared for the test articles. Aliquots of the DMSO solutions were dosed into 700 μL of plasma, which had been pre-warmed to 37° C., at a final test article concentration of 1 μM. […] Samples were stored at 4° C. until the end of the experiment. After the final time point was sampled, the plate was mixed and then centrifuged at 3,000 rpm for 10 minutes. Calibration standards were prepared in matched matrix. […] Analytical conditions are outlined in Appendix 8-1.
as §2, with “#AS1650-2),” for “#GLP530-5),”, “#RAT297944),” for “#RAT297944, RAT313140),”, “CD-I” for “CD-1”, “#BGL91384),” for “#BGL87670, BGL82614),”, “10-1.” for “8-1.”
Studies were carried out in mixed-gender human plasma (Lot #AS1650-2), male Sprague-Dawley rat (Lot #RAT297944), male CD-1 mouse (Lot #MSE237700), and male Beagle dog (Lot #BGL91384), collected on sodium heparin. Plasma was adjusted to pH 7.4 prior to initiating the experiments. DMSO stocks were first prepared for test articles. […] Samples were stored at 4° C. until the end of experiment. After the final time point was sampled, the plate was mixed and then centrifuged at 3,000 rpm for 10 minutes. Calibration standards were prepared in matched matrix. […] Analytical conditions are outlined in Appendix 13-1.
Studies were carried out in mixed-gender human plasma (Lot #AS 1650-2), male Sprague-Dawley rat (Lot #RAT320835), male CD-1 mouse (Lot #MSE260693), and 6 male Beagle dog (Lot #BGL91384), on sodium heparin. Plasma was adjusted to pH 7.4 prior to initiating the experiments. DMSO stocks were first prepared for the test articles. Aliquots of the DMSO solutions were dosed into 700 μL of plasma, which had been pre-warmed to 37° C., at a final test article concentration of 1 μM. […] Samples were stored at 4° C. until the end of the experiment. After the final time point was sampled, the plate was mixed and then centrifuged at 3,000 rpm for 10 minutes. Calibration standards were prepared in matched matrix. […] Analytical conditions are outlined in Appendix 17-1.

The mark [2] stands for this setting: test article 1 μM, 37° C., pH 7.4.

Take `CCCCC/C=C\C/C=C\CCCCCCCC(=O)OCCNC(=O)CCCCCCCCCCCCCCC` [Compound I-6]: the “Concentration (μM) of analyte PEA, 0 min” value in “in vitro” (0 min) was 0.12 µM. In addition, in the data set “in vitro” (10 min), the “Concentration (μM) of analyte PEA, 10 min” value (“Concentration (μM) … 10 min” for short) turned out to be 0.14 µM. Further, the “Concentration (μM) of analyte PEA, 20 min” value (“Concentration (μM) … 20 min” below) in the data set “in vitro” (20 min) was determined as 0.17 µM. For the same compound, in “in vitro” (30 min), the “Concentration (μM) of analyte PEA, 30 min” value (shortened to “Concentration (μM) … 30 min”) worked out at 0.15 µM. In addition, in “in vitro” (60 min), the “Concentration (μM) of analyte PEA, 60 min” value (“Concentration (μM) … 60 min” for short) stood at 0.17 µM. Besides, the “% Remaining of Initial (n = 1), 0 min” value in the data set “in vitro” (s9, 0 h) came to 100%; in data set [1] (test article 1 μM, 37° C.) it was 100%. Besides, in the data set “in vitro” (s9, 10 min), the “% Remaining of Initial (n = 1), 10 min” value amounted to 62%. Moreover, the “% Remaining of Initial (n = 1), 20 min” value in “in vitro” (s9, 20 min) is 69%. Also, the “% Remaining of Initial (n = 1), 30 min” value in “in vitro” (s9, 0.5 h) came to 61%; in data set [1] (test article 1 μM, 37° C.), 89%. Moreover, the “% Remaining of Initial (n = 1), 60 min” value in the data set “in vitro” (s9, 1 h) was 53%; in data set [1] (test article 1 μM, 37° C.), 39%. Further, the intrinsic metabolic clearance (microsomal CLint) (as a rule, the rate of metabolic loss divided by the concentration) at 1 μM in the data set “in vitro” (s9, CLint (mL/min/mg protein)) was under 11.6 µL/min/mg; in “in vitro” (s9, CLint (mL/min/mg protein), calculated value in parentheses), 10.5 µL/min/mg. For the same compound, the half-life (commonly how long it takes for the measured level to halve) at 1 μM is over 60 min in “in vitro” (s9, Half-life (min)); 66 min in the data set “in vitro” (s9, Half-life (min), calculated half-life in parentheses); 56 min in data set [1] (setting [2]). In addition, in data set [1] (test article 1 μM, 37° C.), the “% Remaining of Initial (n = 1), 15 min” value is 83%. The “% Remaining of Initial (n = 1), 120 min” value in data set [1] (test article 1 μM, 37° C.) was 23%.
Take `CCCCCCCCCCCCCCCC(=O)NCCOC(=O)CCC(=O)OC[C@H]1O[C@@](CO)(O[C@H]2O[C@H](CO)[C@@H](O)[C@H](O)[C@H]2O)[C@@H](O)[C@@H]1O` [Compound I-7]: the “Concentration (μM) of analyte PEA, 0 min” value in the data set “in vitro” (0 min) was found to be 0.033 µM. The “Concentration (μM) … 10 min” value in “in vitro” (10 min) came to 0.24 µM. For the same compound, the “Concentration (μM) … 20 min” value in “in vitro” (20 min) was determined as 0.29 µM. Further, in the data set “in vitro” (30 min), the “Concentration (μM) … 30 min” value was determined as 0.39 µM. Further, the “Concentration (μM) … 60 min” value in “in vitro” (60 min) worked out at 0.38 µM. In addition, the “% Remaining of Initial (n = 1), 0 min” value in the data set “in vitro” (s9, 0 h) is 100%. For the same compound, the “% Remaining of Initial (n = 1), 10 min” value in “in vitro” (s9, 10 min) is reported as 59%. Moreover, in the data set “in vitro” (s9, 20 min), the “% Remaining of Initial (n = 1), 20 min” value was determined as 35%. In addition, the “% Remaining of Initial (n = 1), 30 min” value in the data set “in vitro” (s9, 0.5 h) was 27%. In the data set “in vitro” (s9, 1 h), the “% Remaining of Initial (n = 1), 60 min” value was 5.7%. In data set [1] (setting [2]), the half-life at 1 μM is under 1 min. Also, in data set [1] (test article 1 μM, 37° C.), the “% Remaining of Initial (n = 1), 0 min” value was determined as 100%; the “% Remaining of Initial (n = 1), 15 min” value is under 1.0%; the “% Remaining of Initial (n = 1), 30 min” value is under 1.0%; the “% Remaining of Initial (n = 1), 60 min” value is recorded as under 1.0%. Also, the “% Remaining of Initial (n = 1), 120 min” value in data set [1] (test article 1 μM, 37° C.) was under 1.0%.
With `CCCCCCCCCCCCCCCC(=O)NCCOC(=O)CCC(=O)OC(CO)CO` [Compound I-8], the “Measured concentration of PEA (analyte)” value in “in vitro” (0 min) was 0.012 µM; in the data set “in vitro” (10 min), 0.12 µM; in “in vitro” (20 min) it was 0.19 µM; in “in vitro” (30 min), 0.22 µM; in “in vitro” (60 min) it was 0.26 µM. Besides, the “% Remaining of Initial” value in “in vitro” (s9, 0 h) is recorded as 100%; in the data set “in vitro” (s9, 10 min), 65%; in “in vitro” (s9, 20 min), 45%; in “in vitro” (s9, 0.5 h), 31%; in the data set “in vitro” (s9, 1 h), 12%; in data set [1] (0 min) it was 100%. Also, the “% Remaining of Initial” value in data set [1] (15 min), in data set [1] (30 min), in data set [1] (60 min) and in data set [1] (120 min) was under 1.0% each time. Further, the intrinsic clearance (microsomal CLint) at 1 μM in “in vitro” (s9, CLint) was 38.9 µL/min/mg. Moreover, the half-life at 1 μM was 18 min in “in vitro” (s9, Half-life) and under 1 min in data set [1].
For the compound `CCCCCCCCCCCCCCCC(=O)NCCOC(=O)CCC(=O)OCC(O)CO` (stereo not drawn) [Compound I-9], in the data set “in vitro” (0 min), the “Concentration (μM) of analyte PEA, 0 min” value is 0.0024 µM. In addition, in the data set “in vitro” (10 min), the “Concentration (μM) … 10 min” value was determined as 0.12 µM. For the same compound, the “Concentration (μM) … 20 min” value in the data set “in vitro” (20 min) amounted to 0.15 µM. For the same compound, in “in vitro” (30 min), the “Concentration (μM) … 30 min” value worked out at 0.19 µM. Moreover, the “Concentration (μM) … 60 min” value in the data set “in vitro” (60 min) was found to be 0.23 µM. In the data set “in vitro” (s9, 0 h), the “% Remaining of Initial (n = 1), 0 min” value amounted to 100%. In the data set “in vitro” (s9, 10 min), the “% Remaining of Initial (n = 1), 10 min” value worked out at 56%. Further, the “% Remaining of Initial (n = 1), 20 min” value in the data set “in vitro” (s9, 20 min) is reported as 33%. In addition, in the data set “in vitro” (s9, 0.5 h), the “% Remaining of Initial (n = 1), 30 min” value turned out to be 21%. Further, the “% Remaining of Initial (n = 1), 60 min” value in “in vitro” (s9, 1 h) was 6.5%. In the data set “in vitro” (s9, CLint (mL/min/mg protein)), this compound had a microsomal CLint at 1 μM of 53.7 µL/min/mg. Also, in “in vitro” (s9, Half-life (min)), the half-life at 1 μM worked out at 13 min. The half-life at 1 μM in data set [1] (setting [2]) is 13 min. Besides, in data set [1] (test article 1 μM, 37° C.), the “% Remaining of Initial (n = 1), 0 min” value turned out to be 100%; the “% Remaining of Initial (n = 1), 15 min” value is on record as 49%; the “% Remaining of Initial (n = 1), 30 min” value is given as 17%; the “% Remaining of Initial (n = 1), 60 min” value is reported as 2.3%. Also, the “% Remaining of Initial (n = 1), 120 min” value in data set [1] (test article 1 μM, 37° C.) is given as under 1.0%.

Values taken from US11547681B2, “N-acylethanolamide derivatives and uses thereof” (ELIEM THERAPEUTICS, INC., priority 2016, dated 2023).
